Experimental data published in ChEMBL document CHEMBL5046240, “Design, synthesis, and evaluation of potent RIPK1 inhibitors with in vivo anti-inflammatory activity” (Eur J Med Chem, 2022).

Experiments:
HT-29 = experiment: Anti-necroptic activity in human HT-29 cells assessed as TNFalpha/Z-VAD (TSZ) induced necroptosis by measuring cell viability preincubated for 1 hr followed by TSZ addition ans measured after 24 hrs by celltiter-glo luminescent cell viability assay; type: functional, cell-based
[1] = Metabolic stability in human liver microsomes assessed as half life by LC-MS/MS analysis; type: ADME
L929 = experiment: Anti-necroptic activity in mouse L929 cells assessed as TNFalpha/Z-VAD (TSZ) induced necroptosis by measuring cell viability preincubated for 1 hr followed by TSZ addition and measured after 24 hrs by celltiter-glo luminescent cell viability assay; type: functional, cell-based

half-life [1] [min] | SMILES | EC50 (HT-29) [nM] | EC50 (L929) [nM]
14 | CCC(C)OC(=O)Nc1cc(-c2ccc3nc(NC(=O)C4CC4)sc3c2)cnc1C (stereo not drawn) | 17 | 
 | CC(=O)Nc1nc2ccc(-c3cc(NC(=O)OC4CCCCC4)c(C)cn3)cc2s1 | 73 | 15
 | Cc1ncc(-c2ccc3nc(NS(C)(=O)=O)sc3c2)cc1NC(=O)OC1CCCCC1 | > 1000 | 
 | CC(=O)Nc1nc2ccc(-c3cnc(C)c(NC(=O)OC4CCCCC4)c3)cc2s1 | 23 | 13
5.7 | Cc1ncc(-c2ccc3nc(NC(=O)C4CC4)sc3c2)cc1NC(=O)OC1CCCC1 | 8.9 | 8.3
 | CCc1ncc(-c2ccc3nc(NC(C)=O)sc3c2)cc1NC(=O)OC1CCCCC1 | 74 | 150
12 | Cc1ncc(-c2ccc3nc(NC(=O)C4CC4)sc3c2)cc1NC(=O)OC1CC(C)OC(C)C1 (stereo not drawn) | 4.8 | 5.2
 | Cc1ncc(-c2ccc3nc(NC(=O)C4CC4)sc3c2)cc1NC(=O)OC1CCC1 | 16 | 
 | CC(=O)Nc1cn2cc(-c3cnc(C)c(NC(=O)OC4CCCCC4)c3)ccc2n1 | 97 | 45
 | CNC(=O)Nc1nc2ccc(-c3cnc(C)c(NC(=O)OC4CCCCC4)c3)cc2s1 | 7 | 
 | CCOC(=O)Nc1nc2ccc(-c3cnc(C)c(NC(=O)OC4CCCCC4)c3)cc2s1 | 53 | 
 | CC(=O)Nc1nc2cc(-c3cnc(C)c(NC(=O)OC4CCCCC4)c3)ccn2n1 | > 1000 | 
 | CNc1nc2ccc(-c3cnc(C)c(NC(=O)OC4CCCCC4)c3)cc2s1 | > 1000 | 
 | CC(=O)Nc1nc2ccc(-c3cc(NC(=O)OC4CCCCC4)c(C)nn3)cc2s1 | 206 | 
15 | Cc1ncc(-c2ccc3nc(NC(=O)C4CC4)sc3c2)cc1NC(=O)OC1CCCOC1 (stereo not drawn) | 27 | 
 | CC(=O)Nc1nc2ccc(-c3cnc(C#N)c(NC(=O)OC4CCCCC4)c3)cc2s1 | 534 | 
 | CCC(=O)Nc1nc2ccc(-c3cnc(C)c(NC(=O)OC4CCCCC4)c3)cc2s1 | 38 | 
 | CC(=O)Nc1nc2cnc(-c3cnc(C)c(NC(=O)OC4CCCCC4)c3)cc2s1 | > 1000 | 
 | Cc1ncc(-c2ccc3nc(NC(=O)c4ccccc4)sc3c2)cc1NC(=O)OC1CCCCC1 | 52 | 
6.5 | Cc1ncc(-c2ccc3nc(NC(=O)C4CC4)sc3c2)cc1NC(=O)OC1CCCCC1 | 1.6 | 2.9
 | CC(=O)Nc1nc2ccc(-c3cnc(C)c(NC(=O)OC4CCCCC4)c3)nc2s1 | 130 | 30
 | CC(=O)Nc1nc2ncc(-c3cnc(C)c(NC(=O)OC4CCCCC4)c3)cc2s1 | > 1000 | 
 | CC(=O)Nc1nc2ccc(-c3ccc(C)c(NC(=O)OC4CCCCC4)n3)cc2s1 | 650 | 
 | COc1ncc(-c2ccc3nc(NC(C)=O)sc3c2)cc1NC(=O)OC1CCCCC1 | 182 | 
43 | Cc1ncc(-c2ccc3nc(NC(=O)C4CC4)sc3c2)cc1NC(=O)OC1CCC(F)(F)CC1 | 6.1 | 2
 | Cc1ncc(-c2ccc3nc(N)sc3c2)cc1NC(=O)OC1CCCCC1 | 100 | 
 | CC(=O)Nc1nc2ccc(-c3cnc(C)c(NC(=O)OC4CCCCC4)c3)cn2n1 | > 1000 | 
 | CC(=O)Nc1cn2nc(-c3cnc(C)c(NC(=O)OC4CCCCC4)c3)ccc2n1 | 97 | 
